Results as given in patent US20260008768A1, “UREA DERIVATIVES FOR INHIBITING NLRP3 AND USES THEREOF” (VENTUS THERAPEUTICS U.S., INC., priority 2023, published 2026).

Columns and labels:
[1] = molecular target: T1, human NLRP3 (Homo sapiens, UniProt Q96P20); test: Human PBMC NLRP3 Assay (LPS priming, ATP stimulation, cytokine measurement); assay type: cell-based; set-up: host or cells: human PBMCs (A2); human whole blood from healthy volunteers (A3); settings: Table C; human PBMC, LPS + ATP
Experimental: Reagents: Human PBMCs (Normal): iXCells Cat #10HU-003; RPMI 1640 medium with GlutaMAX: ThermoFisher Cat #61870127 (Complete Media: 4.5 g/L D-glucose, 10% FBS, 100 mM NaPyr, 1% Pen/Strep, 10 mM HEPES and 0.05 mM of ®-mercaptoethanol; Assay Media: 4.5 g/L D-glucose, 100 mM NaPyr, 1% Pen/Strep, 10 mM HEPES and 0.05 mM of mercaptoethanol; 96-well V-bottom Plates: Costar Cat #3894; LPS (E. coli O26:B6): Sigma Cat #L2654, stock 5 mg/mL in PBS; ATP: Sigma Cat #A6419, prepared in a 250 mM stock in 1 M HEPES (adjusted to pH 7.4).
Cryopreserved PBMCs were rapidly thawed in a 37° C. water bath for 2 min. Cells were then centrifuged at 1200 RPM for 5 min and resuspended in ˜50 mL of fresh RPMI 1640 Complete Medium. A count was undertaken using a hemocytometer and adjusted to 2.5×10^5 cells/mL. V-shaped 96-well plates were seeded with 200 μL of PBMCs (5×10^4) per well and subsequently incubated overnight at 37° C. with 5% CO2. Assay Media was then prepared containing 100 ng/ml of LPS. PBMCs were then centrifuged at 1,200 RPM for 5 min, serum containing media was aspirated, and 150 μL/well of Assay Media+LPS was immediately added. Assay Media without LPS was added in the untreated control wells. Cells were then primed with LPS for 4 h at 37° C. with 5% CO2. A concentration response curve (CRC) was prepared of 1000× test compound in 100% DMSO. The CRC was then diluted 1:50 in Assay Media and then further diluted by 1:5× in Assay Media resulting in a final 4×CRC in 0.4% DMSO/Assay Media. 50 μL/well of 4× test compound CRC or vehicle (0.4% DMSO/Assay Media) was then transferred into each well and subsequently incubated for 30 min at 37° C. with 5% CO2. Cells were stimulated by adding 4 μL of 250 mM ATP, using a 250 mM stock prepared in 1 M Hepes without further dilution (for a final concentration of 5 mM), for 1 h at 37° C. with 5% CO2 Plates were then centrifuged at 1200 RPM for 5 min; and 50 μl of the media was transferred to a clean 96-well storage plate for cytokine measurements using the mesoscale platform, and stored at −80° C. until analyzed. Compounds were added 30 minutes before priming the cells with LPS when TNFα was required to be quantified in the cytokine panel to confirm selectivity.
PBMC NLRP3 IC50 assay results, as a measurement of cellular potency, are provided in Table B. “A” activity=<0.01 uM; “B” activity=0.01-0.1 uM; “C” activity=>0.1-0.5 uM; “D” activity=>0.5 uM.

[2] = molecular target: T1, human NLRP3; test: Scintillation Proximity (SPA) NLRP3 Assay, displacement of 3H-MCC950; assay type: binding; settings: displacement of 3H-MCC950 from human NLRP3
Method in brief: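 Displacement of radioligand 3H-MCC950 (125 nM final) from 350 nM human NLRP3, read by scintillation proximity after 6 h equilibration with PVT beads. Buffer: 20 mM HEPES pH 7.5, 150 mM NaCl, 5 mM MgCl2, 100 μM ADP; compound preincubated 15 min, ligand 60 min, RT. IC50 from specific binding.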

T1 sequence (Q96P20 whole entry): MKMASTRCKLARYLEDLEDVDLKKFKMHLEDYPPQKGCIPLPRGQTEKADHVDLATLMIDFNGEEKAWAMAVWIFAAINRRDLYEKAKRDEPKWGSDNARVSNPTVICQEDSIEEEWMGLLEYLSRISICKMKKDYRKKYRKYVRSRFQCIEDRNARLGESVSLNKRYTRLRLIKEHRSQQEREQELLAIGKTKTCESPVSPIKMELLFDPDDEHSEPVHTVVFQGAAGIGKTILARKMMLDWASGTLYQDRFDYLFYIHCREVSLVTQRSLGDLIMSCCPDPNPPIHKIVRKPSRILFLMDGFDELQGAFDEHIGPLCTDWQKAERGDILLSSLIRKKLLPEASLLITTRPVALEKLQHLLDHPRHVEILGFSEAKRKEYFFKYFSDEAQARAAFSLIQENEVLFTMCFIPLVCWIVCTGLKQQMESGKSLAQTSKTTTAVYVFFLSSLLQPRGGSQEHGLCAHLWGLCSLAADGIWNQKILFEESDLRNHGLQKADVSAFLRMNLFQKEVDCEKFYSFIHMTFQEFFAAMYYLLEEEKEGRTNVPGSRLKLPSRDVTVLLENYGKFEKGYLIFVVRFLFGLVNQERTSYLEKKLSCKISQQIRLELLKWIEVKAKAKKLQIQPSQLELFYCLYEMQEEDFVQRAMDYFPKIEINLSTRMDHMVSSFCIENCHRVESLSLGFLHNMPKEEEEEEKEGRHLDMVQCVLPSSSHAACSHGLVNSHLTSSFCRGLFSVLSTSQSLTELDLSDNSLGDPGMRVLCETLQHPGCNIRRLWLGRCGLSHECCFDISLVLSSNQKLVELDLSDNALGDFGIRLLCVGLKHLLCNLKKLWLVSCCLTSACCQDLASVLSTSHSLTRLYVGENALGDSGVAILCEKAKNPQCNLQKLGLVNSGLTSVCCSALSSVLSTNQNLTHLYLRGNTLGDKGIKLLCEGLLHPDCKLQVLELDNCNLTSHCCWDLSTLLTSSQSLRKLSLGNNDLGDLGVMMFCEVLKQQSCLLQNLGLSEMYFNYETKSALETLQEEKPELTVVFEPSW

SMILES | IC50 ([2]; Table B, activity class) [µM] | also measured
O=C(N[C@H]1CCCN(c2ccccc2)C1)c1ccc(Cl)cc1 [Comparative Example J2, (S)-4-chloro-N-(1-phenylpiperidin-3-yl)benzamide, reference compound] |  | IC50 [1]: > 100 µM
O=C(N[C@@H]1CCCN(c2nnn[nH]2)C1)c1ccc(Cl)cc1 [Comparative Example G, (R)-N-(1-(1H-tetrazol-5-yl)piperidin-3-yl)-4-chlorobenzamide, reference compound] |  | IC50 [1]: > 100 µM
O=C(N[C@@H]1CCCN(c2ccccc2)C1)c1ccc(Cl)cc1 [Comparative Example J1, (R)-4-chloro-N-(1-phenylpiperidin-3-yl)benzamide, reference compound] |  | IC50 [1]: > 100 µM
CN(C(=O)N(C)[C@@H]1CCCN(c2nnn[nH]2)C1)c1ccc(Cl)cc1 [Comparative Example C2, (R)-1-(1-(1H-tetrazol-5-yl)piperidin-3-yl)-3-(4-chlorophenyl)-1,3-dimethylurea, reference compound] |  | IC50 [1]: 58.1 µM
C[C@H]1C[C@@H](NC(=O)N(C)c2ccc(OC(F)(F)F)c(F)c2)[C@@H]2CC[C@H]1N2c1nnn[nH]1 (single isomer, unassigned) [51C*] | > 100 | 
C[C@@H]1C[C@@H](NC(=O)N(C)c2ccc(C(F)F)c(F)c2)[C@H]2CC[C@@H]1N2c1nnn[nH]1 (single isomer, unassigned) [53A*] | 1 to 10 | 
C[C@H]1C[C@@H](NC(=O)N(C)c2ccc(C(F)(F)F)c(F)c2F)[C@@H]2CC[C@H]1N2c1nnn[nH]1 (single isomer, unassigned) [47C*] | > 100 | 
C[C@H]1C[C@@H](NC(=O)N(C)c2ccc(OC(F)(F)F)c(OC(F)F)c2)[C@@H]2CC[C@H]1N2c1nnn[nH]1 (single isomer, unassigned) [63C*] | 50 to 100 | 
CCN(C(=O)N[C@H]1C[C@H](C)[C@H]2CC[C@@H]1N2c1nnn[nH]1)c1ccc(OC(F)F)cc1F (single isomer, unassigned) [65D*] | 10 to 50 | 
C[C@@H]1C[C@H](NC(=O)N(C)c2c(F)cc(OC(F)(F)F)cc2F)[C@H]2CC[C@@H]1N2c1nnn[nH]1 (single isomer, unassigned) [62B*] | > 100 | 
C[C@@H]1C[C@H](NC(=O)N(C)c2ccc(OC(F)(F)F)c(F)c2F)[C@H]2CC[C@@H]1N2c1nnn[nH]1 (single isomer, unassigned) [59B*] | 50 to 100 | 
C[C@H]1C[C@@H](NC(=O)N(C)c2ccc(OC(F)F)c(F)c2)[C@@H]2CC[C@H]1N2c1nnn[nH]1 (single isomer, unassigned) [52C*] | > 100 | 
C[C@H]1C[C@@H](NC(=O)N(C)c2ccc(OC(F)F)cc2F)[C@@H]2CC[C@H]1N2c1nnn[nH]1 (single isomer, unassigned) [57C*] | 50 to 100 | 
C[C@@H]1C[C@H](NC(=O)N(C)c2ccc(OC(F)(F)F)c(OC(F)F)c2)[C@H]2CC[C@@H]1N2c1nnn[nH]1 (single isomer, unassigned) [63B*] | > 100 | 
C[C@H]1C[C@H](NC(=O)N(C)c2ccc(OC(F)F)cc2)[C@@H]2CC[C@H]1N2c1nnn[nH]1 (single isomer, unassigned) [42D*] | 10 to 50 | 
C[C@H]1C[C@H](NC(=O)N(C)c2ccc(C(F)(F)F)c(F)c2)[C@@H]2CC[C@H]1N2c1nnn[nH]1 (single isomer, unassigned) [49D*] | 50 to 100 | 
C[C@H]1C[C@H](NC(=O)N(C)c2ccc(C(F)(F)F)c(F)c2F)[C@@H]2CC[C@H]1N2c1nnn[nH]1 (single isomer, unassigned) [47D*] | 10 to 50 | 

More lines, main results first:

IC50 ([2]; Table B, activity class) [µM] | SMILES | also measured
10 to 50 | C[C@@H]1CCN(c2nnn[nH]2)C[C@H](NC(=O)N(C)c2ccc(C(F)(F)F)nn2)C1 (single isomer, unassigned) [33A*] | 
1 to 10 | C[C@@H]1CCN(c2nnn[nH]2)C[C@@H](NC(=O)N(C)c2ccc(OC(F)F)c(F)c2)C1 (single isomer, unassigned) [15B*] | 
50 to 100 | C[C@H]1CCN(c2nnn[nH]2)C[C@H](NC(=O)N(C)c2ccc(Cl)cc2F)C1 (single isomer, unassigned) [5C*] | 
1 to 10 | C[C@H]1CCN(c2nnn[nH]2)C[C@@H](NC(=O)N(C)c2ccc(C3CC3)c(F)c2)C1 (single isomer, unassigned) [23D*] | 
1 to 10 | C[C@@H]1CCN(c2nnn[nH]2)C[C@@H](NC(=O)N(C)c2ccc(OC(F)F)cc2F)C1 (single isomer, unassigned) [17B*] | 
1 to 10 | CC1CCN(c2nnn[nH]2)CC(NC(=O)N(C)c2ccc(Cl)cc2)C1 (single isomer, unassigned) [4D*] | 
50 to 100 | C[C@H]1CCN(c2nnn[nH]2)C[C@H](NC(=O)N(C)c2c(F)cc(OC(F)(F)F)cc2F)C1 (single isomer, unassigned) [41C*] | 
1 to 10 | C[C@@H]1CCN(c2nnn[nH]2)C[C@@H](NC(=O)N(C)c2ccc(Cl)c(F)c2)C1 (single isomer, unassigned) [12B*] | 
1 to 10 | C[C@@H]1CCN(c2nnn[nH]2)C[C@@H](NC(=O)Nc2ccc(Cl)cc2F)C1 (single isomer, unassigned) [27B*] | 
1 to 10 | C[C@@H]1CCN(c2nnn[nH]2)C[C@@H](NC(=O)N(C)c2ccc(C(F)(F)F)c(F)c2)C1 (single isomer, unassigned) [9B*] | 
50 to 100 | C[C@H]1C[C@@H](NC(=O)N(C)c2ccc3ocnc3c2)CN(c2nnn[nH]2)C1 [Compound 34A, 1-(benzo[d]oxazol-5-yl)-1-methyl-3-((3R,5S)-5-methyl-1-(1H-tetrazol-5-yl)piperidin-3-yl)urea] | 
50 to 100 | C[C@H]1CCN(c2nnn[nH]2)C[C@@H](NC(=O)N(C)c2cnc(C(F)(F)F)cn2)C1 (single isomer, unassigned) [32D*] | 
10 to 50 | C[C@H]1C[C@@H](NC(=O)N(C)c2ccc3cnoc3c2)CN(c2nnn[nH]2)C1 [Compound 38A, 1-(benzo[d]isoxazol-6-yl)-1-methyl-3-((3R,5S)-5-methyl-1-(1H-tetrazol-5-yl)piperidin-3-yl)urea] | 
1 to 10 | C[C@@H]1CCN(c2nnn[nH]2)C[C@@H](NC(=O)N(C)c2ccc(C(F)(F)F)c(F)c2F)C1 (single isomer, unassigned) [21B*] | 
1 to 10 | C[C@@H]1CCN(c2nnn[nH]2)C[C@@H](NC(=O)N(C)c2ccc(Cl)cc2)C1 (single isomer, unassigned) [4B*] | 
1 to 10 | C[C@@H]1CCN(c2nnn[nH]2)C[C@@H](NC(=O)N(C)c2ccc(C3CC3)cc2)C1 (single isomer, unassigned) [8B*] | 
> 100 | C[C@H]1CCN(c2nnn[nH]2)C[C@H](NC(=O)N(C)c2ccc(OC(F)(F)F)cc2)C1 (single isomer, unassigned) [10C*] | 
< 1 | C[C@H]1C[C@@H](NC(=O)N(C)c2ccc(OC(F)F)cc2)CN(c2nnn[nH]2)C1 [Compound 39A, 1-(4-(difluoromethoxy)phenyl)-1-methyl-3-((3R,5S)-5-methyl-1-(1H-tetrazol-5-yl)piperidin-3-yl)urea] | IC50 ([2]; Table C): 0.82 µM
1 to 10 | C[C@@H]1CCN(c2nnn[nH]2)C[C@@H](NC(=O)N(C)c2ccc(OC(F)(F)F)c(F)c2)C1 (single isomer, unassigned) [14B*] | 
> 100 | O=C(N[C@@H]1CCCN(c2nnn[nH]2)C1)N(c1ccc(Cl)cc1)C1CC1 [Compound 3A, (R)-3-(1-(1H-tetrazol-5-yl)piperidin-3-yl)-1-(4-chlorophenyl)-1-cyclopropylurea] | 
10 to 50 | C[C@@H]1CCN(c2nnn[nH]2)C[C@@H](NC(=O)N(C)c2cnc(C(F)(F)F)nc2)C1 (single isomer, unassigned) [31B*] | 
10 to 50 | C[C@H]1CCN(c2nnn[nH]2)C[C@H](NC(=O)Nc2ccc(Cl)cc2F)C1 (single isomer, unassigned) [27C*] | 
